Results: article doi:10.1101/2024.11.09.622805v1 (bioRxiv, 2024)

Key:
[1] = system: HT-22 cells; type: cell-based, mouse
[2] = system: SNAP-25, Syntaxin-1A, AT1A3; experiment: Immunocytochemistry of porosome proteins in Alzheimer's neurons; type: cell-based, mouse; conditions: Alzheimer's neurons WT-APP (Aβ)
[3] = stated in discussion, no reference given; cited from earlier work

O=c1cc(-c2ccc(O)cc2)oc2cc(O)cc(O)c12 [Apigenin]
mitoSOX, peptide plus Apigenin ([1]; AD neurons, peptide and Apigenin combined): near normal levels
mitoSOX, effect of Apigenin ([1]; HT-22, Apigenin 5 or 10 μM with DA1 1 μM, Aβ1–42 10 μM 12 h): not much change
immunoreactivity of SNAP-25, Syntaxin-1A and AT1A3, single agent [2]: Modest increase
passage through the blood-brain barrier [3]: can pass through the blood-brain barrier
